Assay results from ChEMBL document CHEMBL5291721, “A preclinical secondary pharmacology resource illuminates target-adverse drug reaction associations of marketed drugs” (Nat Commun, 2023).

How the values were obtained:
Adenosine receptor A3 = molecular target: T1, Adenosine receptor A3 (Homo sapiens, UniProt P0DMS8)
T1 sequence (P0DMS8 whole entry): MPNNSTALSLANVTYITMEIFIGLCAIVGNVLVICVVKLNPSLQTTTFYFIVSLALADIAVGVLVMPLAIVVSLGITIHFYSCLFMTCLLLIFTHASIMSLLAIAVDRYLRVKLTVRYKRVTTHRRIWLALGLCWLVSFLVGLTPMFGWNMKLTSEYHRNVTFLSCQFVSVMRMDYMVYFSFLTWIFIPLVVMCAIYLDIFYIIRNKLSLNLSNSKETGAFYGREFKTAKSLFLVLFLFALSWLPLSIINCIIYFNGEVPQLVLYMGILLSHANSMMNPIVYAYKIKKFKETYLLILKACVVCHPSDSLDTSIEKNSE

D(1A) dopamine receptor = D(1A) dopamine receptor (Homo sapiens, UniProt P21728)
Sequence of D(1A) dopamine receptor (P21728 whole entry): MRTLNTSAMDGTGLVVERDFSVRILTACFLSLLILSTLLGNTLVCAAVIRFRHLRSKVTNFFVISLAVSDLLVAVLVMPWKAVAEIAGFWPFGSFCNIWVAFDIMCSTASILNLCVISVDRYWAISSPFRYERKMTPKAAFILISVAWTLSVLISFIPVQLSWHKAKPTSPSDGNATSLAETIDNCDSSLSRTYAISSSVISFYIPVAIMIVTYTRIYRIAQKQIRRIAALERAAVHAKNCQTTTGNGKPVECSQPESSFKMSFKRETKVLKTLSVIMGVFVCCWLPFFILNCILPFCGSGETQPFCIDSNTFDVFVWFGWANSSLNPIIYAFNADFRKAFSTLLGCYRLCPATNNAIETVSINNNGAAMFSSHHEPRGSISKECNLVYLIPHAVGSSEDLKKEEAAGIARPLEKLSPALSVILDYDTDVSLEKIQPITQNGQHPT

Thromboxane A2 receptor = molecular target: T2, Thromboxane A2 receptor (Homo sapiens, UniProt P21731); assay type: functional, cell-based
T2 sequence (P21731 whole entry): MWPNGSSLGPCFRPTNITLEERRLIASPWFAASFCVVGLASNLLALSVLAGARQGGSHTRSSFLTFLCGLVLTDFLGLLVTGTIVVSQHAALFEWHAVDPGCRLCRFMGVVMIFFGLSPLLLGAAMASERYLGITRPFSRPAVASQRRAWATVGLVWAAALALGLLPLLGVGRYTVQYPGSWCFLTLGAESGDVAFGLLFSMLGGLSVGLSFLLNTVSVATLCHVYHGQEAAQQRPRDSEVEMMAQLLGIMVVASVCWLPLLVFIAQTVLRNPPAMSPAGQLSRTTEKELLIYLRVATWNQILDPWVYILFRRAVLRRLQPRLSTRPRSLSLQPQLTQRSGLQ

Androgen receptor = molecular target: T3, Androgen receptor (Homo sapiens, UniProt P10275)
T3 sequence (P10275 whole entry): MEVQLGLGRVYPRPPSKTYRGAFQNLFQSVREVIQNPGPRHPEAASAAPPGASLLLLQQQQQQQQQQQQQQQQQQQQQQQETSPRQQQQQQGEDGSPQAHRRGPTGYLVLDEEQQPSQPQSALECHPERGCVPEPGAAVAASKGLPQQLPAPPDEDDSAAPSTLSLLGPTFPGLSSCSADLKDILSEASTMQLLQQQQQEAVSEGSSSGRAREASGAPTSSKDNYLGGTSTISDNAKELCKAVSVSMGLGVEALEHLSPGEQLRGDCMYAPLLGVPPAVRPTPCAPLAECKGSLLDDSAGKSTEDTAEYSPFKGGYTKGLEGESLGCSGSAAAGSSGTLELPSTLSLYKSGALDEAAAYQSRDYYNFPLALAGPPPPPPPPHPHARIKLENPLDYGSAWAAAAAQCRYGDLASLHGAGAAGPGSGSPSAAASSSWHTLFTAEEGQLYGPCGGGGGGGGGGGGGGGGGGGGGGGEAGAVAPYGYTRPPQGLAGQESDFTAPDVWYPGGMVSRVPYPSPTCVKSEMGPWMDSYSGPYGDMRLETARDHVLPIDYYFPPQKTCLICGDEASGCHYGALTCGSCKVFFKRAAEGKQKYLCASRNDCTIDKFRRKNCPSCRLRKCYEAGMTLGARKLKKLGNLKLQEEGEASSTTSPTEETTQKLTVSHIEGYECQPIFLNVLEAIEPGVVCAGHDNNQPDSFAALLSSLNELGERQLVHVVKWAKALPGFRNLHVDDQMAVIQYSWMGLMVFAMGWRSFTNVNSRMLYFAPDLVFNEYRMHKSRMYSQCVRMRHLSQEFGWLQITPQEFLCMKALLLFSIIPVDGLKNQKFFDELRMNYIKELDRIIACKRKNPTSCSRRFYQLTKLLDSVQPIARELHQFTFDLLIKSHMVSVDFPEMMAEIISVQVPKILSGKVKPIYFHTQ

[1] = molecular target: T4, Peroxisome proliferator-activated receptor gamma (Homo sapiens, UniProt P37231); assay type: functional
T4 sequence (P37231 whole entry): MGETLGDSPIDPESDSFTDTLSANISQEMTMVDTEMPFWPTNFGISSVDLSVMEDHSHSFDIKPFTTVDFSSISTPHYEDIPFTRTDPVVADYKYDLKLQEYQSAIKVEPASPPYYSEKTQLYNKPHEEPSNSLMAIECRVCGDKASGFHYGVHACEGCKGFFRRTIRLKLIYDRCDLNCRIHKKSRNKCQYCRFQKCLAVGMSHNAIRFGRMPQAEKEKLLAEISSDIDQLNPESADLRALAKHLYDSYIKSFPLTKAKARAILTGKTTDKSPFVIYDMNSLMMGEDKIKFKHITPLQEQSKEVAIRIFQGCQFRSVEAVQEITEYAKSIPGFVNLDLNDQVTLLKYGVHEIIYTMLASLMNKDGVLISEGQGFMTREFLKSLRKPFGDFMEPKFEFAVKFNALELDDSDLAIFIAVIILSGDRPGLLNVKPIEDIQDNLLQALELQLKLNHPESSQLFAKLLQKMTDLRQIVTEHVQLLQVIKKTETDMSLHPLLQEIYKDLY

[2] = molecular target: 5-hydroxytryptamine receptor 7 (Homo sapiens, UniProt P34969)
Sequence of 5-hydroxytryptamine receptor 7 (P34969 whole entry): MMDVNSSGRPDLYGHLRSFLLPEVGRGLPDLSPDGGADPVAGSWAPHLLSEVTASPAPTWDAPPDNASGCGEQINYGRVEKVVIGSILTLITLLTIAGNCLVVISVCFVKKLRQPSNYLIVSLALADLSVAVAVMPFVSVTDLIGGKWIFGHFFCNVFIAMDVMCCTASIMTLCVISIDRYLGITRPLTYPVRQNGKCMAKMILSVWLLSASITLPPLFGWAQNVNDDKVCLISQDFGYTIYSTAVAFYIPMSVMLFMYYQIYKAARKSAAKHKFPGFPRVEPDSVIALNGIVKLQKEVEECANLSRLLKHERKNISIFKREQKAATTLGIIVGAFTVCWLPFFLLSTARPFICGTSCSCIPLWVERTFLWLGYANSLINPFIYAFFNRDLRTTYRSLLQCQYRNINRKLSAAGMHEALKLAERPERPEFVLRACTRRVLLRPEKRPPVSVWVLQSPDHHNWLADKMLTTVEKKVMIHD

Cannabinoid receptor 1 = Cannabinoid receptor 1 (Homo sapiens, UniProt P21554); assay type: functional
Sequence of Cannabinoid receptor 1 (P21554 whole entry): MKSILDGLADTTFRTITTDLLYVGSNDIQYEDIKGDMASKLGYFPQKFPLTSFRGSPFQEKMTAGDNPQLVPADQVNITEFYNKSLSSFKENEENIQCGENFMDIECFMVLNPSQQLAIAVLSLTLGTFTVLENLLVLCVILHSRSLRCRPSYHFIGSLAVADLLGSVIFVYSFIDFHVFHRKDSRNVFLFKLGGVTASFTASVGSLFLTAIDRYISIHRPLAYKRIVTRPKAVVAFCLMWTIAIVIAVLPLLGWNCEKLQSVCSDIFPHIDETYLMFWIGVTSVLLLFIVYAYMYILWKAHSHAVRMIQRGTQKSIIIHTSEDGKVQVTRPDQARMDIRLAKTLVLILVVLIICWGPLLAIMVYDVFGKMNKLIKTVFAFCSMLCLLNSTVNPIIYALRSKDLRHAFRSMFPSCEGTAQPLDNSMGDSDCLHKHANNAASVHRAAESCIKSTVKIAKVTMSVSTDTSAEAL

[3] = molecular target: 5-hydroxytryptamine receptor 6 (Homo sapiens, UniProt P50406)
Sequence of 5-hydroxytryptamine receptor 6 (P50406 whole entry): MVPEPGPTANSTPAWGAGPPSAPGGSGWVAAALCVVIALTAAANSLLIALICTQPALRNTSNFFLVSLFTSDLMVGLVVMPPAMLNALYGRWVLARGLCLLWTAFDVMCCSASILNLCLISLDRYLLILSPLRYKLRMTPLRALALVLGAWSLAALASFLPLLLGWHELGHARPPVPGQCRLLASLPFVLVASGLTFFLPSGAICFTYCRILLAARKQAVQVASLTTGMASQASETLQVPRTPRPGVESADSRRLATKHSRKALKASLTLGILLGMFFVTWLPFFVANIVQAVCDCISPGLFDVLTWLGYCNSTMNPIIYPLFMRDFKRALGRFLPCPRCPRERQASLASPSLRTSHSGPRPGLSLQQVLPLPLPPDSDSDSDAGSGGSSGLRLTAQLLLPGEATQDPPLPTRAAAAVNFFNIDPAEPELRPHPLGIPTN

[4] = molecular target: Vascular endothelial growth factor receptor 2 (Homo sapiens, UniProt P35968); assay type: functional
Sequence of Vascular endothelial growth factor receptor 2 (P35968 whole entry): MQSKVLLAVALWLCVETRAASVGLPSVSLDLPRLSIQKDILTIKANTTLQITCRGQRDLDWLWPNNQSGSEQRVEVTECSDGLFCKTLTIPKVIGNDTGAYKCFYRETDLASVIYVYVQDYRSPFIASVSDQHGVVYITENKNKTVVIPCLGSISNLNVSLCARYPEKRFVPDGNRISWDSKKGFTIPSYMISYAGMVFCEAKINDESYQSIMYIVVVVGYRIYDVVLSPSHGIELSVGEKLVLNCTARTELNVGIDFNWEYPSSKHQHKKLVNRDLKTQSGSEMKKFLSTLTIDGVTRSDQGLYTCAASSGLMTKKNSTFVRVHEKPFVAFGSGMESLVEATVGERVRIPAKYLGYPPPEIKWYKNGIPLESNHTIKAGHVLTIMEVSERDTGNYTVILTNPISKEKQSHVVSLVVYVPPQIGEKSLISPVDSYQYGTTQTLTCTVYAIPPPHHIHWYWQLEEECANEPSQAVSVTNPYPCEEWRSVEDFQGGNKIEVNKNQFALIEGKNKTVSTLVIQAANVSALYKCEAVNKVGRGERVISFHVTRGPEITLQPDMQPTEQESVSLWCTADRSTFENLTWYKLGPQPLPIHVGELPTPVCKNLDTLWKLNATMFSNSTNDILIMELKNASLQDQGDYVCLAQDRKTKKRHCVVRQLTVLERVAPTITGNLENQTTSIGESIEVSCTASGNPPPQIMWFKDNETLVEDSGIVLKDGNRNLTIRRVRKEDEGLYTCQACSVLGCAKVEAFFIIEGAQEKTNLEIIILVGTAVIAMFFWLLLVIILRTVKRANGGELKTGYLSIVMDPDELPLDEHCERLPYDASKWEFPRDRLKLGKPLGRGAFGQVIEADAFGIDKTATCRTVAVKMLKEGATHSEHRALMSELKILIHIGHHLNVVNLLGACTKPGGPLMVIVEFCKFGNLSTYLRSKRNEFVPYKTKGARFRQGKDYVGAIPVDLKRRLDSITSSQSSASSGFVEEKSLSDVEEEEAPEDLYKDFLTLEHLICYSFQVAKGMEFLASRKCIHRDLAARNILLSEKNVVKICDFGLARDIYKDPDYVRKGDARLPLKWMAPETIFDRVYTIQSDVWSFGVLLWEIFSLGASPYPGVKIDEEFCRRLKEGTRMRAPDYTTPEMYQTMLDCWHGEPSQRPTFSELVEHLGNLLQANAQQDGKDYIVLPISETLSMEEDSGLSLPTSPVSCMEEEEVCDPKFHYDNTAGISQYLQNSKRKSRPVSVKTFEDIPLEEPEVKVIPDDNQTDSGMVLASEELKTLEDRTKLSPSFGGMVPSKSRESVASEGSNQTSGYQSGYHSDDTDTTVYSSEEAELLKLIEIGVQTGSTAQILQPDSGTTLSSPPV

Histamine H1 receptor = Histamine H1 receptor (Homo sapiens, UniProt P35367); assay type: functional, cell-based
Sequence of Histamine H1 receptor (P35367 whole entry): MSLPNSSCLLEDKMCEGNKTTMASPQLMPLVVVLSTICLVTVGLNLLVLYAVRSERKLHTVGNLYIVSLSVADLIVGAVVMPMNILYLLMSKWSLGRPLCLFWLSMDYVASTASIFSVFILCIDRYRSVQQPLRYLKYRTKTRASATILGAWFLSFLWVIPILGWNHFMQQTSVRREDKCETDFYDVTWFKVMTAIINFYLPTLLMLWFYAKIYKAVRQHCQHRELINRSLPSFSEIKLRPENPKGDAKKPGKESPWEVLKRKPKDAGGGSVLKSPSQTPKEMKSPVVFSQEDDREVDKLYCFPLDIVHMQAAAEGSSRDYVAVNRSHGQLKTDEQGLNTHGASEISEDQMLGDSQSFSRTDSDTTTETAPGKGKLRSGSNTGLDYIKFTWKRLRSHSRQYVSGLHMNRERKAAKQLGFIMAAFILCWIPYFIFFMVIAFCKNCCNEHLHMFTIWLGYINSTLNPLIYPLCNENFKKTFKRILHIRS
Also: assay procedure not described here.

## CO[C@]12C[C@@H](COC(=O)c3cncc(Br)c3)CN(C)[C@@H]1Cc1cn(C)c3cccc2c13 [NICERGOLINE]
Adenosine receptor A3
  AC50: 22.4 µM
D(1A) dopamine receptor
  AC50: 0.393 µM
Thromboxane A2 receptor
  AC50: 7.6 µM
Androgen receptor
  AC50: > 30 µM

## Brc1c(NC2=NCCN2)ccc2nccnc12 [BRIMONIDINE]
[1]
  AC50: > 30 µM

## Cc1c(OCC(F)(F)F)ccnc1C[S+]([O-])c1nc2ccccc2[nH]1 (stereo not given) [LANSOPRAZOLE]
[2]
  AC50: > 10 µM
Cannabinoid receptor 1
  AC50: > 10 µM
[3]
  AC50: > 10 µM

## CC(CC1c2ccccc2CCc2ccccc21)CN(C)C (stereo not given) [BUTRIPTYLINE]
[4]
  AC50: > 30 µM

## NC(=O)CN1CC(O)CC1=O (stereo not given) [OXIRACETAM]
Histamine H1 receptor
  AC50: > 30 µM
